# Experimental data published in PubChem BioAssay (NCI).
#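 48-hour exposure; five concentrations; linearly interpolated endpoints. Abbreviation: GI50, concentration required for 50% inhibition of growth. TGI marks complete inhibition of growth.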
# What was measured:
# Experiment in all cases: NCI anticancer screen, dose series, 48 h
# RPMI-8226 leukemia = tested on: RPMI-8226 leukemia
# SR leukemia = tested on: SR leukemia
# HOP-92 NSCLC = tested on: HOP-92 NSCLC
# A498 renal = tested on: A498 renal
# OVCAR-4 ovarian = tested on: OVCAR-4 ovarian
# K-562 leukemia = tested on: K-562 leukemia
# KM12 colon = tested on: KM12 colon
# LOX IMVI melanoma = tested on: LOX IMVI melanoma
# SK-OV-3 ovarian = tested on: SK-OV-3 ovarian
# MCF7 breast = tested on: MCF7 breast
# OVCAR-8 ovarian = tested on: OVCAR-8 ovarian
# HOP-62 NSCLC = tested on: HOP-62 NSCLC
# A549 NSCLC = tested on: A549 NSCLC
# SF-539 CNS = tested on: SF-539 CNS
# IGROV1 ovarian = tested on: IGROV1 ovarian
# HCT-116 colon = tested on: HCT-116 colon
# U251 CNS = tested on: U251 CNS
# CAKI-1 renal = tested on: CAKI-1 renal
# OVCAR-5 ovarian = tested on: OVCAR-5 ovarian
# SN12C renal = tested on: SN12C renal
# SF-268 CNS = tested on: SF-268 CNS
# M14 melanoma = tested on: M14 melanoma
# NCI-H226 lung = tested on: NCI-H226 lung
# T-47D breast = tested on: T-47D breast
# MOLT-4 leukemia = tested on: MOLT-4 leukemia
# NCI-H522 lung = tested on: NCI-H522 lung
# NCI-H23 lung = tested on: NCI-H23 lung
# ACHN renal = tested on: ACHN renal
# NCI-H460 lung = tested on: NCI-H460 lung
# HCC-2998 colon = tested on: HCC-2998 colon
# HL-60(TB) leukemia = tested on: HL-60(TB) leukemia
# SNB-19 CNS = tested on: SNB-19 CNS
# NCI/ADR-RES ovarian = tested on: NCI/ADR-RES ovarian
# SF-295 CNS = tested on: SF-295 CNS
# SK-MEL-5 melanoma = tested on: SK-MEL-5 melanoma
# SK-MEL-2 melanoma = tested on: SK-MEL-2 melanoma
# OVCAR-3 ovarian = tested on: OVCAR-3 ovarian
# 786-0 renal = tested on: 786-0 renal
# RXF 393 renal = tested on: RXF 393 renal
# PC-3 prostate = tested on: PC-3 prostate
# EKVX NSCLC = tested on: EKVX NSCLC
# SK-MEL-28 melanoma = tested on: SK-MEL-28 melanoma
# SW-620 colon = tested on: SW-620 colon
# MALME-3M melanoma = tested on: MALME-3M melanoma
# UO-31 renal = tested on: UO-31 renal
# HS 578T breast = tested on: HS 578T breast
# SNB-75 CNS = tested on: SNB-75 CNS
# TK-10 renal = tested on: TK-10 renal
# HT29 colon = tested on: HT29 colon
# UACC-257 melanoma = tested on: UACC-257 melanoma
# MDA-MB-468 breast = tested on: MDA-MB-468 breast
# MDA-MB-231 breast = tested on: MDA-MB-231 breast
# CCRF-CEM leukemia = tested on: CCRF-CEM leukemia
# MDA-MB-435 = tested on: MDA-MB-435
# DU-145 prostate = tested on: DU-145 prostate
# HCT-15 colon = tested on: HCT-15 colon
# BT-549 breast = tested on: BT-549 breast
# COLO 205 colon = tested on: COLO 205 colon
# UACC-62 melanoma = tested on: UACC-62 melanoma
smiles,measurement,setting,value
C#CCNC(=O)CCC(=O)OC[C@]12CC[C@@H](C(=C)C)[C@@H]1C1CC[C@@H]3[C@@]4(C)CCCNC(C)(C)[C@@H]4CC[C@@]3(C)[C@]1(C)CC2 (stereo partly drawn),GI50,RPMI-8226 leukemia,4.15 µM
same,TGI,RPMI-8226 leukemia,20.7 µM
same,GI50,SR leukemia,> 64.8 µM
same,TGI,SR leukemia,> 64.8 µM
same,GI50,HOP-92 NSCLC,7.54 µM
same,TGI,HOP-92 NSCLC,19 µM
same,GI50,A498 renal,10.3 µM
same,TGI,A498 renal,20.9 µM
same,GI50,OVCAR-4 ovarian,9.11 µM
same,TGI,OVCAR-4 ovarian,20.8 µM
same,GI50,K-562 leukemia,1.78 µM
same,TGI,K-562 leukemia,16.3 µM
same,GI50,KM12 colon,8.73 µM
same,TGI,KM12 colon,18.8 µM
same,GI50,LOX IMVI melanoma,1.23 µM
same,TGI,LOX IMVI melanoma,2.83 µM
same,GI50,SK-OV-3 ovarian,9.94 µM
same,TGI,SK-OV-3 ovarian,20 µM
same,GI50,MCF7 breast,2.36 µM
same,TGI,MCF7 breast,9.66 µM
same,GI50,OVCAR-8 ovarian,11.1 µM
same,TGI,OVCAR-8 ovarian,33.8 µM
same,GI50,HOP-62 NSCLC,11.7 µM
same,TGI,HOP-62 NSCLC,23.7 µM
same,GI50,A549 NSCLC,7.12 µM
same,TGI,A549 NSCLC,16.7 µM
same,GI50,SF-539 CNS,7.48 µM
same,TGI,SF-539 CNS,15.7 µM
same,GI50,IGROV1 ovarian,7.29 µM
same,TGI,IGROV1 ovarian,16.3 µM
same,GI50,HCT-116 colon,3.31 µM
same,TGI,HCT-116 colon,27.4 µM
same,GI50,U251 CNS,6.62 µM
same,TGI,U251 CNS,16.8 µM
same,GI50,CAKI-1 renal,8.1 µM
same,TGI,CAKI-1 renal,17.2 µM
same,GI50,OVCAR-5 ovarian,9.38 µM
same,TGI,OVCAR-5 ovarian,17.9 µM
same,GI50,SN12C renal,7.89 µM
same,TGI,SN12C renal,16.7 µM
same,GI50,SF-268 CNS,10.5 µM
same,TGI,SF-268 CNS,23.8 µM
same,GI50,M14 melanoma,6.83 µM
same,TGI,M14 melanoma,19 µM
same,GI50,NCI-H226 lung,7.58 µM
same,TGI,NCI-H226 lung,18.3 µM
same,GI50,T-47D breast,8.06 µM
same,TGI,T-47D breast,21.1 µM
same,GI50,MOLT-4 leukemia,2.42 µM
same,TGI,MOLT-4 leukemia,18.7 µM
same,GI50,NCI-H522 lung,11.7 µM
same,TGI,NCI-H522 lung,25.4 µM
same,GI50,NCI-H23 lung,7.89 µM
same,TGI,NCI-H23 lung,16.1 µM
same,GI50,ACHN renal,10.1 µM
same,TGI,ACHN renal,18.9 µM
same,GI50,NCI-H460 lung,7.89 µM
same,TGI,NCI-H460 lung,18.6 µM
same,GI50,HCC-2998 colon,2.55 µM
same,TGI,HCC-2998 colon,10.3 µM
same,GI50,HL-60(TB) leukemia,2.37 µM
same,TGI,HL-60(TB) leukemia,14 µM
same,GI50,SNB-19 CNS,8.91 µM
same,TGI,SNB-19 CNS,17.6 µM
same,GI50,NCI/ADR-RES ovarian,5.48 µM
same,TGI,NCI/ADR-RES ovarian,16.6 µM
same,GI50,SF-295 CNS,3.54 µM
same,TGI,SF-295 CNS,12.2 µM
same,GI50,SK-MEL-5 melanoma,6.78 µM
same,TGI,SK-MEL-5 melanoma,14.4 µM
same,GI50,SK-MEL-2 melanoma,11.7 µM
same,TGI,SK-MEL-2 melanoma,23.3 µM
same,GI50,OVCAR-3 ovarian,7.73 µM
same,TGI,OVCAR-3 ovarian,18.2 µM
same,GI50,786-0 renal,8.29 µM
same,TGI,786-0 renal,23.6 µM
same,GI50,RXF 393 renal,3.51 µM
same,TGI,RXF 393 renal,13.6 µM
same,GI50,PC-3 prostate,4.8 µM
same,TGI,PC-3 prostate,16.3 µM
same,GI50,EKVX NSCLC,6.5 µM
same,TGI,EKVX NSCLC,14.2 µM
same,GI50,SK-MEL-28 melanoma,8.2 µM
same,TGI,SK-MEL-28 melanoma,16.5 µM
same,GI50,SW-620 colon,7.25 µM
same,TGI,SW-620 colon,16.7 µM
same,GI50,MALME-3M melanoma,9.03 µM
same,TGI,MALME-3M melanoma,18.5 µM
same,GI50,UO-31 renal,6.96 µM
same,TGI,UO-31 renal,14.9 µM
same,GI50,HS 578T breast,9.96 µM
same,TGI,HS 578T breast,24.2 µM
same,GI50,SNB-75 CNS,9.12 µM
same,TGI,SNB-75 CNS,18.7 µM
same,GI50,TK-10 renal,10.1 µM
same,TGI,TK-10 renal,22 µM
same,GI50,HT29 colon,2.71 µM
same,TGI,HT29 colon,13.9 µM
same,GI50,UACC-257 melanoma,2.51 µM
same,TGI,UACC-257 melanoma,9.16 µM
same,GI50,MDA-MB-468 breast,2.21 µM
same,TGI,MDA-MB-468 breast,10.5 µM
same,GI50,MDA-MB-231 breast,8.83 µM
same,TGI,MDA-MB-231 breast,17.7 µM
same,GI50,CCRF-CEM leukemia,4.24 µM
same,TGI,CCRF-CEM leukemia,37.1 µM
same,GI50,MDA-MB-435,6.9 µM
same,TGI,MDA-MB-435,15.2 µM
same,GI50,DU-145 prostate,10 µM
same,TGI,DU-145 prostate,21.5 µM
same,GI50,HCT-15 colon,3.89 µM
same,TGI,HCT-15 colon,12.4 µM
same,GI50,BT-549 breast,11.3 µM
same,TGI,BT-549 breast,21.1 µM
same,GI50,COLO 205 colon,2.25 µM
same,TGI,COLO 205 colon,7.29 µM
same,GI50,UACC-62 melanoma,9.04 µM
same,TGI,UACC-62 melanoma,18.1 µM
